From PMC8472287, “Betulinic Acid Decorated with Polar Groups and Blue Emitting BODIPY Dye: Synthesis, Cytotoxicity, Cell-Cycle Analysis and Anti-HIV Profiling” (Biomedicines, 2021)
Read-outs that look alike come from different tables or passages of the source.

Assays:
[1] = tested on: U2OS-Nuc cell line; test: Live cell imaging, pilot experiment; format: cell-based, human; conditions: 10 µM, 1 h incubation
Protocol: U2OS cell line (ATCC, USA) was transduced with premade lentiviral particles (Vectalis-TaKaRa, Japan) with sequences that express fluorescent protein tag mCherry targeted to specific subcellular locations. All cell lines were prepared according to the vendor’s instructions. The U2OS-Nuc cell line was prepared by using rLV.EF1.mCherry-Nuc-9 (cat. n. 0023VCT), containing a NLS sequence that imports protein into the nucleus. The U2OS-ER cell line was transduced by rLV.EF1.mCherry-ER-9 (cat. n. 0025VCT), which contains a calreticulin signal sequence and a KDEL sequence that associates protein with the endoplasmic reticulum. The U2OS-GA cell line was transduced by rLV.EF1.mCherry-Golgi-9 (cat. n. 0022VCT), containing a human GT precursor, a protein localized in Golgi Apparatus. The U2OS-Mito cell line was prepared by using rLV.EF1.mCherry-Mito-9 (cat. n. 0024VCT), containing a mitochondrial targeting sequence.
U2OS cells with fluorescent fusion proteins (density 1.0 × 10^3 per well) were seeded into 384 CellCarrier plates (Perkin Elmer, Waltham, MA, USA) and pre-incubated for 24 h at 37 °C and 5% CO2. The attached cells were treated with tested compounds in concentration 10 µM for 1 h and subsequently rinsed with fresh media. The live-cell imaging was performed by Cell Voyager CV7000 (Yokogawa, Tokyo, Japan) spinning disc confocal microscopy system at 37 °C in a 5% CO2 atmosphere. Live cells were monitored by a 60 × water immersion objective. The fluorescent signal was excited by lasers (405 nm and 561 nm) and the emission was filtered by bandpass filters (BP 445/45 and BP 595/20). All images were post-processed, and Pearson’s and Mander’s coefficients were calculated using the JACoP plugin in Image-J software.

[2] = tested on: CCRF-CEM; test: MTS cytotoxicity assay, CCRF-CEM; format: cell-based; conditions: Homo sapiens, 72 h, 3-day incubation
Text: (§1) All cells (if not indicated otherwise) were purchased from the American Tissue Culture Collection (ATCC; Manassas, VA, USA). The highly chemosensitive CCRF-CEM line is derived from T lymphoblastic leukaemia, K562 represent cells of chronic myelogenous leukaemia. Colorectal adenocarcinoma HCT116 cell line and its p53 gene knockout counterpart (HCT116p53−/−, Horizon Discovery Ltd., Cambridge, UK) were used as models to assess the impact of p53 deficiency on cell line sensitivity. A549 cells are derived from lung adenocarcinoma and U2OS from human osteosarcoma. CEM-DNR and K562-Tax are well-characterized daunorubicin and paclitaxel-resistant sublines of CCRF-CEM and K562. The CEM-DNR resistant cells overexpress the P-glycoprotein and LRP protein, the K562-Tax overexpress P-glycoprotein but is losing the expression of LRP, which is present at parental K562 cell line. P-glycoprotein belongs to the ABC transporters’ family and is involved in the primary and acquired multidrug resistance phenomenon by the efflux of toxic compounds, LRP protein is involved in the lysosomal degradation. MRC-5 and BJ cell lines were used as a non-tumour control and represent human fibroblasts. The cells were maintained in Nunc/Corning 80 cm^2 plastic tissue culture flasks and cultured in cell culture medium according to ATCC or Horizon recommendations (DMEM/RPMI 1640 with 5 g/L-glucose, 2 mM glutamine, 100 U/mL penicillin, […] streptomycin, 10% fetal calf serum, and NaHCO3).
(§2) To perform the cytotoxicity MTS assay, cell suspensions were prepared and diluted according to the cell type and the expected target cell density (25,000–35,000 cells/mL) based on cell growth characteristics. Cells were added by an automatic pipettor (30 μL) into 384 well microtiter plates. All tested compounds were dissolved in 100% DMSO and four-fold dilutions of the intended test concentration were added in 0.15 μL aliquots at time zero to the microtiter plate wells by the echo-acoustic liquid handler Echo550 (Labcyte, San Jose, CA, USA). The experiments were performed in technical duplicates and at least three biological replicates. The cells were incubated with the tested compounds for 72 h at 37 °C, in a 5% CO2 atmosphere at 99% humidity. At the end of the incubation period, the cells were assayed by using the MTS test. Aliquots (5 µL) of the MTS stock solution were pipetted into each well and incubated for an additional 1–4 h. After this incubation period, the optical density (OD) was measured at 490 nm with an Envision microplate reader (Perkin Elmer, Waltham, Massachusetts, USA). Tumour cell survival (TCS) was calculated using the following equation: TCS = (ODdrug-exposed well/mean ODcontrol wells) × 100%.

[3] = tested on: CEM-DNR; test: MTS cytotoxicity assay, CEM-DNR; format: cell-based; conditions: Homo sapiens, 72 h, CEM-DNR (daunorubicin resistant), 3-day incubation
Text: as §1, §2

[4] = tested on: K562; test: MTS cytotoxicity assay, K562; format: cell-based; conditions: Homo sapiens, 72 h, 3-day incubation
Text: as §1, §2

[5] = tested on: K562-Tax; test: MTS cytotoxicity assay, K562-Tax; format: cell-based; conditions: Homo sapiens, 72 h, K562-Tax (paclitaxel-resistant), 3-day incubation
Text: as §1, §2

[6] = tested on: A549; test: MTS cytotoxicity assay, A549; format: cell-based; conditions: Homo sapiens, 72 h, 3-day incubation
Text: as §1, §2

[7] = tested on: HCT116; test: MTS cytotoxicity assay, HCT116; format: cell-based; conditions: Homo sapiens, HCT-116, 72 h, 3-day incubation
Text: as §1, §2

[8] = tested on: HCT116p53−/−; test: MTS cytotoxicity assay, HCT116p53−/−; format: cell-based; conditions: Homo sapiens, HCT116-p53-null, 72 h, HCT116p53−/− (null p53 gene), 3-day incubation
Text: as §1, §2

[9] = tested on: U2OS; test: MTS cytotoxicity assay, U2OS; format: cell-based; conditions: Homo sapiens, 72 h, 3-day incubation
Text: as §1, §2

[10] = tested on: MRC-5; test: MTS cytotoxicity assay, MRC-5; format: cell-based; conditions: Homo sapiens, MRC5, 72 h, MRC-5 normal fibroblasts, 3-day incubation
Text: as §1, §2

[11] = tested on: BJ; test: MTS cytotoxicity assay, BJ; format: cell-based; conditions: Homo sapiens, 72 h, BJ normal fibroblasts, 3-day incubation
Text: as §1, §2

[12] = tested on: CCRF-CEM lymphoblasts; test: BrDU incorporation analysis (DNA synthesis); format: cell-based, human; conditions: 24 h incubation
Protocol: Cells were cultivated as in the method above and pulse-labelled with 10 μM 5-bromo-2-deoxyuridine (BrDU) for 30 min before collection to the test tubes. The cells were washed with cold 1 × PBS and fixed in ice-cold 70% ethanol. Before analysis, they were washed with 1 × PBS and incubated in 2M HCl for 30 min at room temperature. Following neutralization with 0.1M Na2B4O7 (borax), the cells were washed with 0.5% Tween-20 and 1% BSA in 1 × PBS. The cell pellets were stained using a primary anti-BrdU antibody (Exbio, Vestec, Czech Republic) for 30 min at room temperature and a secondary anti-mouse-FITC antibody (Sigma). The samples were then incubated with propidium iodide (0.1 mg mL^−1), treated with RNase A (0.5 mg mL^−1) for 1 h at room temperature in the dark and analysed as above.

[13] = tested on: CCRF-CEM lymphoblasts; test: BrU incorporation analysis (RNA synthesis); format: cell-based, human; conditions: 24 h, 5 × IC50 (high concentration)
[14] = tested on: CA-SP1 processing of HIV-1 Gag polyprotein; test: Western blot of released virions with anti-HIV-1 CA antibody; format: cell-based
[15] = tested on: entire cell line panel
[16] = in vitro; conditions: human
[17] = tested on: VSV-G pseudotyped HIV-1 particles; test: microbe, parasite or virus in culture; format: cell-based; conditions: read-out: IC50i (50% infection inhibition)
[18] = Human immunodeficiency virus 1, HEK293, 48 h

Row | SMILES | detection in living cells [1] | IC50 [2] | IC50 [3] | IC50 [4] | IC50 [5] | IC50 [6] | IC50 [7] | IC50 [8] | IC50 [9] | IC50 [10] | IC50 [11] | fraction of proliferating BrDU positive CCRF-CEM cells (in words) [12] | RNA synthesis by BrU (in words) [13] | CA forms identified in released viruses (CA-SP1 processing) [14] | cytotoxic effect in the cell line panel (in words) [15] | IC50 [16] | IC50 [17, 18] | IC50 [17]
1 | O=C(O)CCNC1=C2C=CC=[N+]2[B-](F)(F)n2cccc21 [BODIPY-CO2H, 8-N-(β-Alanyl)amino-4,4-difluoro-4-bora-3a,4a-diaza-s-indacene] | not detected |  |  |  |  |  |  |  |  |  |  |  |  |  |  |  |  | 
2 | NCCCNC1=C2C=CC=[N+]2[B-](F)(F)n2cccc21 [BODIPY-NH2, 8-N-(3-Aminopropyl)amino-4,4-difluoro-4-bora-3a,4a-diaza-s-indacene] | not detected |  |  |  |  |  |  |  |  |  |  |  |  |  |  |  |  | 
3 | C=C(C)[C@@H]1CC[C@]2(C(=O)NCCCNC(=O)OC(C)(C)C)CC[C@]3(C)[C@H](CC[C@@H]4[C@@]5(C)CC[C@H](OC(=O)CC(C)(C)C(=O)O)C(C)(C)[C@@H]5CC[C@]43C)[C@@H]12 [Compound 8, 4-{[(3β)-28-({3-[(Tert-butoxycarbonyl)amino]propyl}amino)-28-oxolup-20(29)-ene-3--yl]oxy}-2,2-dimethyl-4-oxobutanoic acid] |  | 8.18 µM | 9.24 µM | 19.2 µM | 13.3 µM | 18.8 µM | 13.2 µM | 21.6 µM | 17.2 µM | 23.1 µM | 21.5 µM | reduced the fraction of proliferating BrDU positive CCRF-CEM cells | stalled RNA synthesis | not only fully processed p24 CA, but also p25 CA-SP1 protein | medium cytotoxicity | 37.8 µM |  | 
4 | C=C(C)[C@@H]1CC[C@]2(C(=O)NCCCNC3=C4C=CC=[N+]4[B-](F)(F)n4cccc43)CC[C@]3(C)[C@H](CC[C@@H]4[C@@]5(C)CC[C@H](OC(=O)CC(C)(C)C(=O)O)C(C)(C)[C@@H]5CC[C@]43C)[C@@H]12 [Compound 10, 4-{[(3β)-28-{[N-(4,4-Difluoro-4-bora-3a,4a-diaza-s-indacene-8-yl)-3-aminopropyl]amino}-28-oxolup-20(29)-ene-3-yl]oxy}-2,2-dimethyl-4-oxobutanoic acid] |  | 2.92 µM | 7 µM | 23.2 µM | 12.2 µM | 13.6 µM | 7.92 µM | 8.8 µM | 12.4 µM | 14.1 µM | 15.5 µM | reduced the fraction of proliferating BrDU positive CCRF-CEM cells | stalled RNA synthesis | not only fully processed p24 CA, but also p25 CA-SP1 protein | medium cytotoxicity | > 40 µM | < 10 µM | 8.4 µM
5 | C=C(C)[C@@H]1CC[C@]2(C(=O)N3CCN(CCNC4=C5C=CC=[N+]5[B-](F)(F)n5cccc54)CC3)CC[C@]3(C)[C@H](CC[C@@H]4[C@@]5(C)CC[C@H](OC(=O)CC(C)(C)C(=O)O)C(C)(C)[C@@H]5CC[C@]43C)[C@@H]12 [Compound 18, 4-{[(3β)-28-{4-[N-(4,4-Difluoro-4-bora-3a,4a-diaza-s-indacene-8-yl)-2-aminoethyl]piperazine-1-yl}-28-oxolup-20(29)-ene-3-yl]oxy}-2,2-dimethyl-4-oxobutanoic acid] |  | 8.61 µM | > 50 µM | > 50 µM | > 50 µM | 47.8 µM | 30.8 µM | 45.5 µM | > 50 µM | > 50 µM | > 50 µM | increased the percentage of cells incorporating BrDU | increased the percentage of BrU positive cells | not only fully processed p24 CA, but also p25 CA-SP1 protein | inactive | > 40 µM | < 10 µM | 7.1 µM
